Reference: patent publication US20040241871A1, “Method and apparatus for analyzing endocrine-distrupting substances in vital sample” (priority 2001, published 2004)

Assay type: in vivo, human
Details: for Concentration of Chlordane in Vital Sample, Maternal Serum / Concentration of Chlordane in Vital Sample, Mother's Milk / Concentration of Endocrine-Disrupting Substance in Vital Sample, Cord Serum / Concentration of Endocrine-Disrupting Substance in Vital Sample, Maternal Serum / Concentration of Endocrine-Disrupting Substance in Vital Sample, Mother's Milk / Concentration of Chlordane in Vital Sample, Cord Serum: in fat; for Concentration of Chlordane in Vital Sample, Maternal Serum / Concentration of Chlordane in Vital Sample, Mother's Milk / Concentration of Chlordane in Vital Sample, Cord Serum: individual chlordanes; for PCB isomer value in the cord serum as compared with the maternal serum: cord serum vs maternal serum, confidence coefficient: 95% or more; for Concentration of Endocrine-Disrupting Substance in Vital Sample, Cord Serum / Concentration of Endocrine-Disrupting Substance in Vital Sample, Maternal Serum / Concentration of Endocrine-Disrupting Substance in Vital Sample, Mother's Milk: samples from 10 mothers
Text: Maternal serum, cord serum and mother's milk samples collected from 10 mothers were used (30 samples in total). These samples were used for the analysis test after obtaining the consent from the subjects.
The GPC column used was Shodex (registered trademark) EV-200AC Column (polystyrene-base hard gel column having an inner diameter of 2 mm and a length of 150 mm) manufactured by Showa Denko K. K.
A programmed temperature vaporizer (PTV) was equipped and in the GC part, an inactivated silica tube (2 m (length)×0.53 mm (inner diameter)) and capillary columns DB-5 (0.5 m (length)×0.25 mm (inner diameter), film thickness: 0.25 μm; and 60 m (length)×0.25 mm (inner diameter), film thickness: 0.1 μm), both manufactured by J & W Scientific, were used. After the injection of solution, the temperature was kept at 83° C. (for 5 minutes) and then elevated to 172° C. at 1° C./min and further to 270° C. at 50° C./min. The measurement was performed at 280° C.
In the main test below, the internal standard substances used were 3 kinds of PCBs marked by ^13C (3,3′,4,4′-tetrachlorobiphenyl, 3,3′,4,4′,5-pentachlorobiphenyl, 3,3′,4,4′,5,5′-hexachlorobiphenyl), hexachlorobenzene (HCB) and p,p′-dichlorodiphenyl dichloroethylene (DDE).
The cord serum (8 ml), the maternal serum (4 ml) and the mother's milk (2 ml) each was subjected to fat extraction according to the method by Patterson et al. More specifically, the sample was charged into a separating funnel, the internal standard substance was added, and then saturated ammonium sulfate, ethanol and hexane were added at a ratio of about 1:1:3. After shaking to cause separation into two layers, the aqueous layer was transferred to a different separating funnel and hexane was added thereto. After shaking to cause separation into two layers, the hexane layer was combined with the organic layer obtained at the first separation, washed with water, dried over anhydrous sodium sulfate, filtered, concentrated and dried. Thereafter, the total weight of fat was measured. The average fat amount was 0.197% in the cord serum, 0.895% in the maternal serum and 3.04% in the mother's milk.
Acetone/cyclohexane (3:7) (v/v) was passed through the GPC column at a flow rate of 0.1 ml/min and 20 μl of a solution obtained by dissolving the fat extracted above in 50 to 100 μl of a solvent having the same composition was injected into the GPC.
Based on the results in the preliminary measurement, the elution composition of 0 to 3.2 minutes after the injection of sample was discarded and the fraction of 3.2 to 5.2 minutes was collected in a sample loop (storage amount: 200 μl) and introduced into GC/MS at 5.2 to 7.5 minutes.
The results are shown in Table 1 together with analysis results of other endocrine-disrupting substances.

Row | Structure (SMILES) | Concentration of Chlordane in Vital Sample, Maternal Serum [ppb] | Concentration of Chlordane in Vital Sample, Mother's Milk [ppb] | Concentration of Endocrine-Disrupting Substance in Vital Sample, Cord Serum [ppb] | Concentration of Endocrine-Disrupting Substance in Vital Sample, Maternal Serum [ppb] | Concentration of Endocrine-Disrupting Substance in Vital Sample, Mother's Milk [ppb] | further results
1 | ClC1=C(Cl)[C@]2(Cl)[C@H]3C[C@H](Cl)[C@H](Cl)[C@H]3[C@@]1(Cl)C2(Cl)Cl (relative stereo) [cis-Chlordane] | 0.86 | 0.93 | – | – | – | –
2 | Clc1ccc(-c2cc(Cl)c(Cl)cc2Cl)cc1Cl [#118] | – | – | – | – | – | PCB isomer value in the cord serum as compared with the maternal serum: significantly low
3 | Clc1cc(Cl)c(-c2cc(Cl)c(Cl)cc2Cl)cc1Cl [#153] | – | – | – | – | – | PCB isomer value in the cord serum as compared with the maternal serum: significantly low
4 | Clc1cc(Cl)c(-c2cc(Cl)c(Cl)c(Cl)c2)c(Cl)c1 [#168] | – | – | – | – | – | PCB isomer value in the cord serum as compared with the maternal serum: significantly low
5 | Clc1ccc(-c2cc(Cl)c(Cl)c(Cl)c2Cl)c(Cl)c1Cl [#170] | – | – | – | – | – | PCB isomer value in the cord serum as compared with the maternal serum: significantly low
6 | ClC(Cl)=C(c1ccc(Cl)cc1)c1ccc(Cl)cc1 [DDE, p,p′-dichlorodiphenyl dichloroethylene] | – | – | 278.63 | 314.48 | 343.62 | –
7 | Clc1c(Cl)c(Cl)c(Cl)c(Cl)c1Cl [HCB, hexachlorobenzene] | – | – | 14.14 | 15.71 | 14.08 | –
8 | ClC1=C(Cl)C2(Cl)C3C4OC4C(Cl)C3C1(Cl)C2(Cl)Cl (stereo not drawn) [HCE, heptachloroepoxide] | – | – | 1.55 | 2.61 | 3.06 | –
9 | ClC1C(Cl)C(Cl)C(Cl)C(Cl)C1Cl (stereo not drawn) [HCH, hexachlorocyclohexane] | – | – | 189.54 | 271.49 | 315.58 | –
10 | ClC1=C(Cl)C2(Cl)C3C(Cl)C=CC3C1(Cl)C2(Cl)Cl (stereo not drawn) [Heptachlor] | – | – | 1.20 | 1.17 | 0.30 | –
11 | ClC1=C(Cl)[C@]2(Cl)[C@H]3[C@H]([C@H](Cl)[C@]4(Cl)O[C@H]34)[C@@]1(Cl)C2(Cl)Cl [Oxychlordane] | 6.30 | 6.49 | – | – | – | Concentration of Chlordane in Vital Sample, Cord Serum: 6.66 ppb
12 | ClC1=C(Cl)[C@]2(Cl)[C@H]3[C@H]([C@H](Cl)C(Cl)[C@@H]3Cl)[C@@]1(Cl)C2(Cl)Cl (stereo partly drawn) [cis-Nonachlor] | 1.54 | 2.25 | – | – | – | Concentration of Chlordane in Vital Sample, Cord Serum: 0.91 ppb
13 | ClC1=C(Cl)[C@]2(Cl)[C@H]3[C@H]([C@H](Cl)C(Cl)[C@@H]3Cl)[C@@]1(Cl)C2(Cl)Cl (stereo partly drawn) [trans-Nonachlor] | 17.08 | 19.58 | – | – | – | Concentration of Chlordane in Vital Sample, Cord Serum: 16.35 ppb
14 | ClC1=C(Cl)[C@]2(Cl)C3C(Cl)C(Cl)CC3[C@@]1(Cl)C2(Cl)Cl (stereo partly drawn) [γ-Chlordane] | 1.43 | 1.66 | – | – | – | Concentration of Chlordane in Vital Sample, Cord Serum: 1.64 ppb
